# Test results published in ChEMBL document CHEMBL5620382, “Fluoroindole chalcone analogues targeting the colchicine binding site of tubulin for colorectal oncotherapy” (Eur J Med Chem, 2023).
# Calls of active or inactive are those of the source. The rule behind the calls is not given here.
# Key:
# HCT-116 [1] = assay: Cytotoxicity against human HCT-116 cells assessed as growth inhibition measured after 48 hrs by CCK-8 assay; format: functional
# PC-12 = assay: Antiproliferative activity against rat PC12 cells assessed as inhibition of proliferation at 2.5 to 20 nM measured after 24 hrs by CCK-8 assay; format: toxicity, cell-based; conditions: pc-12, 24 h, 0.02 µM, dose 2.5-20 nM
# [2] = Toxicity in BALB/c mouse xenografted with human HCT116 cells assessed as change in body weight at 1.5 to 3 mg/kg, ip thrice a week for three weeks; format: organism-based, HCT-116; conditions: in vivo, 504 h, dose 1.5-3 mg/kg, time 3 weeks
# [3] = Toxicity in BALB/c mouse xenografted with human HCT116 cells assessed as side effects at 1.5 to 3 mg/kg, ip thrice a week for three weeks; format: organism-based, HCT-116; conditions: in vivo, 504 h, dose 1.5-3 mg/kg, time 3 weeks
# HCT-116 [4] = assay: Anti-tumor activity against human HCT-116 cells xenografted in BALB/c mouse assessed as increase in necrotic area in tumor section at 3 mg/kg, ip thrice a week for three weeks by H and E staining based assay; format: functional, organism-based; conditions: time 3.0 weeks
# [5] = Toxicity in BALB/c mouse xenografted with human HCT-116 cells assessed as organ toxicity at 3 mg/kg, ip thrice a week for three weeks by […]; format: organism-based; conditions: in vivo, 504 h, time 3 weeks
# HCT-116 [6] = assay: Induction of cell cycle arrest in human HCT-116 cells […] assessed as accumulation of cells at G2/M phase at 2.5 to 10 nM by flow cytometry analysis; format: functional, cell-based; conditions: dose 2.5-10 nM
# Tubulin (Homo sapiens) [7] = target: T1, Tubulin (Homo sapiens) (UniProt P68371+Q9H4B7+P0DPH7+P68366+Q13509+Q71U36+P04350+Q3ZCM7+P07437+P68363+Q9BQE3+Q6PEY2+Q13885+Q9BVA1+Q9BUF5); assay: Induction of microtubule stabilization in human HCT-116 cells at […] using 1:300 ratio of cell lysate/pronase incubated for 2 hrs by drug affinity reactive target stabilization (DARTS) assay; format: subcellular
# Tubulin (Homo sapiens) [8] = target: T1, Tubulin (Homo sapiens); assay: Stabilization of microtubule in human HCT-116 cells at […] incubated for 1 hrs by CETSA; format: cell-based
# Tubulin = assay: Binding affinity to wild type tubulin (unknown origin) by MST analysis; format: protein-complex assay, Homo sapiens
# Homo sapiens = species on record: Homo sapiens; assay: Binding affinity to tubulin mutant (unknown origin) by MST analysis
# HCT-116 [9] = assay: Induction of endoplasmic reticulum (ER) stress in human HCT-116 cells assessed as organelle vacuoles at 10 to 20 nM measured after 24 hrs by transmission electron microscope (TEM) analysis; format: functional, cell-based; conditions: dose 10-20 nM
# CT26 [10] = assay: Induction of endoplasmic reticulum (ER) stress in mouse CT26 cells assessed as organelle vacuoles at 10 to 20 nM measured after 24 hrs by transmission electron microscope (TEM) analysis; format: functional, cell-based; conditions: dose 10-20 nM
# CT26 [11] = assay: Induction of endoplasmic reticulum (ER) stress in mouse CT26 cells assessed as rough long-linear and irregularly dilated with locally verified expansion at 10 to 20 nM measured after 24 hrs by transmission electron microscope (TEM) analysis; format: functional, cell-based; conditions: dose 10-20 nM
# HCT-116 [12] = assay: Induction of endoplasmic reticulum (ER) stress in human HCT-116 cells assessed as increase p-IRE1alpha expression at 10 to 20 nM measured after 24 hrs by Western blot analysis; format: functional, cell-based; conditions: dose 10-20 nM
# HCT-116 [13] = assay: Induction of endoplasmic reticulum (ER) stress in human HCT-116 cells assessed as upregulation of cleaved-caspase 3 at 10 to 20 nM measured after 24 hrs by Western blot analysis; format: functional, cell-based; conditions: dose 10-20 nM
# CT26 [14] = assay: Induction of endoplasmic reticulum (ER) stress in mouse CT26 cells assessed as increase p-PERK expression at 10 to 40 nM measured after 24 hrs by Western blot analysis; format: functional, cell-based; conditions: dose 10-40 nM
# CT26 [15] = assay: Induction of endoplasmic reticulum (ER) stress in mouse CT26 cells assessed as increase p-eIF2alpha expression at 10 to 40 nM measured after 24 hrs by Western blot analysis; format: functional, cell-based; conditions: dose 10-40 nM
# CT26 [16] = assay: Induction of endoplasmic reticulum (ER) stress in mouse CT26 cells assessed as increase p-IRE1alpha expression at 10 to 40 nM measured after 24 hrs by Western blot analysis; format: functional, cell-based; conditions: dose 10-40 nM
# CT26 [17] = assay: Induction of endoplasmic reticulum (ER) stress in mouse CT26 cells assessed as upregulation of cleaved-caspase 3 at 10 to 40 nM measured after 24 hrs by Western blot analysis; format: functional, cell-based; conditions: dose 10-40 nM
# HCT-116 [18] = assay: Cytotoxicity against human HCT-116 cells assessed as growth inhibition measured after 24 hrs in presence of GSK2606414 PERK inhibitor by CCK-8 assay; format: functional, cell-based
# CT26 [19] = assay: Induction of mitochondrial damage in mouse CT26 cells at 10 to 40 nM measured after 24 hrs by transmission electron microscope (TEM) analysis; format: functional, cell-based; conditions: dose 10-40 nM
# HCT-116 [20] = assay: Induction of endoplasmic reticulum (ER) stress in human HCT-116 cells assessed as increase in ROS level at 20 nM measured after 24 hrs by fluorescent analysis (reference value: 12%); format: functional
# CT26 [21] = assay: Induction of endoplasmic reticulum (ER) stress in mouse CT26 cells assessed as increase in ROS level at 40 nM measured after 24 hrs by fluorescent analysis (reference value: 14%); format: functional
# HCT-116 [22] = assay: Cytotoxicity against human HCT-116 cells assessed as growth inhibition at 1.25 to 20 uM measured after 24 hrs in presence of ROS scavenger NAC by CCK-8 assay; format: functional, cell-based; conditions: dose 1.25-20 µM
# HCT-116 [23] = assay: Induction of mitochondrial dysfunction in human HCT-116 cells assessed as change in mitochondrial membrane potential (MMP) by JC-1 fluorescence assay; format: functional, cell-based; conditions: dose 1.25-20 µM
# CT26 [24] = assay: Induction of mitochondrial dysfunction in mouse CT26 cells assessed as change in mitochondrial membrane potential (MMP) by JC-1 fluorescence assay; format: functional, cell-based; conditions: dose 2.5-40 µM
# HCT-116 [25] = assay: Induction of mitochondrial dysfunction in human HCT-116 cells assessed as reduction in oxygen consumption rate (OCR) incubated for 24 hrs; format: functional, cell-based; conditions: dose 1.25-20 µM
# HCT-116 [26] = assay: Induction of endoplasmic reticulum (ER) stress in human HCT-116 cells assessed as increase in ROS level at 1.25 nM measured after 24 hrs by fluorescent analysis (reference value: 12%); format: functional
# HCT-116 [27] = assay: Induction of endoplasmic reticulum (ER) stress in human HCT-116 cells assessed as increase in ROS level at 2.5 nM measured after 24 hrs by fluorescent analysis (reference value: 12%); format: functional
# HCT-116 [28] = assay: Induction of endoplasmic reticulum (ER) stress in human HCT-116 cells assessed as increase in ROS level at 5 nM measured after 24 hrs by fluorescent analysis (reference value: 12%); format: functional
# CT26 [29] = assay: Induction of endoplasmic reticulum (ER) stress in mouse CT26 cells assessed as increase in ROS level at 5 nM measured after 24 hrs by fluorescent analysis (reference value: 14%); format: functional
# CT26 [30] = assay: Induction of endoplasmic reticulum (ER) stress in mouse CT26 cells assessed as increase in ROS level at 10 nM measured after 24 hrs by fluorescent analysis (reference value: 14%); format: functional
# [31] = Toxicity in C57BL/6-APCmin/+ mouse model assessed as change in body weight at 3 mg/kg, ip treated for 45 days; format: organism-based; conditions: in vivo, 1080 h, time 45 day
compound,measurement,setting,value
COc1cc(C(=O)/C(C)=C/c2c[nH]c3cc(F)ccc23)cc(OC)c1OC,GI50,HCT-116 [1],0.079 µM
same,Activity,PC-12,Non-Toxic
same,Activity,[2],Non-Toxic
same,Activity,[3],Non-Toxic
same,Activity,HCT-116 [4],Active
same,Activity,[5],Non-Toxic
same,Activity,HCT-116 [6],Active
same,Activity,Tubulin (Homo sapiens) [7],Active
same,Activity,Tubulin (Homo sapiens) [8],inactive
same,Kd,Tubulin,0.136 µM
same,Activity,Homo sapiens,inactive
same,Activity,HCT-116 [9],Active
same,Activity,CT26 [10],Active
same,Activity,CT26 [11],Active
same,Activity,HCT-116 [12],Active
same,Activity,HCT-116 [13],Active
same,Activity,CT26 [14],Active
same,Activity,CT26 [15],Active
same,Activity,CT26 [16],Active
same,Activity,CT26 [17],Active
same,Activity,HCT-116 [18],inactive
same,Activity,CT26 [19],Active
same,Activity,HCT-116 [20],74.4%
same,Activity,CT26 [21],59.1%
same,Activity,HCT-116 [22],inactive
same,Activity,HCT-116 [23],Dose-Dependent Effect
same,Activity,CT26 [24],Dose-Dependent Effect
same,Activity,HCT-116 [25],Dose-Dependent Effect
same,Activity,HCT-116 [26],20.1%
same,Activity,HCT-116 [27],35.6%
same,Activity,HCT-116 [28],48.5%
same,Activity,CT26 [29],15%
same,Activity,CT26 [30],24.4%
same,Activity,[31],Non-Toxic
